Results on twelve molecules are retold here after publication PMC6641592, “Deciphering Design Principles of Förster Resonance Energy Transfer-Based Protease Substrates: Thermolysin-Like Protease from Geobacillus stearothermophilus as a Test Case” (ACS Omega, 2018).

Data set [1] deals with TLP-ste (C288L/N181C) (Geobacillus stearothermophilus, UniProt P06874, C520L/N413C). Conditions: for Km / vmax: Michaelis-Menten fit, mean ± SD, triplicate; for vmax: MOPS pH 7.4, 10% DMSO; for kcat/KM: calculated from kcat and KM; for increase of kcat with peptide length: 8aa substrate relative to 4aa substrate with the same acceptor.
The conditions of data set [2]: after complete hydrolysis with 1 nM TLP-ste, >16 h room temperature; MOPS buffer, 10% DMSO; λex 450/λem 520 nm.
In data set [3] the target is TLP-ste (Geobacillus stearothermophilus, UniProt P06874, C520L/N413C). Conditions: product 0–20 μM; substrates 8aa-Cy5 and 8aa-AF647 0–2 μM; triplicate.
Data set [4] relates to CC(C)C[C@H](NC(=O)CNC(=O)C=Cc1ccco1)C(N)=O. The experiment in a line: purified protein, by the assay type. The settings on record: other: enzyme preparation TLP-ste (C288L/N181C).
In data set [5] the target is thermolysin-like protease (TLP-ste) from Geobacillus stearothermophilus, C288L/N181C (Geobacillus stearothermophilus).
Where [6] appears, read: corrected for IFE and FRET efficiency, 1 nM TLP-ste, 20 mM MOPS pH 7.4, 5 mM CaCl2, 10% DMSO, 30 °C, donor λex 490/λem 520 nm.
The mark [7] stands for this setting: corrected for IFE and FRET efficiency, 1 nM TLP-ste, 30 °C.
Where [8] appears, read: corrected for IFE and FRET efficiency, vmax divided by enzyme concentration (1 nM).
Setting [9] is: correction: FRET efficiency only.
[10] abbreviates: correction: FRET efficiency only, vmax divided by enzyme concentration.
Where [11] appears, read: correction: IFE only, vmax divided by enzyme concentration.
The mark [12] stands for this setting: correction: none, vmax divided by enzyme concentration.

Where two headings read alike, the source gives them in different places. AF647 = Alexa Fluor 647 (maleimide); CF = 5,6-carboxyfluorescein; Cy5 = Cy5 (maleimide)

Usually Km stands for the substrate concentration at which the rate is half of its maximum. By kcat/KM is commonly meant the turnover number divided by the Michaelis constant.

In the case of CF-PAGLAC(AF674)-NH2 [4aa-AF647], the values for the Km in data set [1] (setting [6]), in data set [1] (setting [9]) and in data set [1] (correction: none) were 53.3 ± 33.9 µM, 14.3 ± 4 µM and 14.3 ± 4 µM, respectively. Further, the vmax in data set [1] (setting [7]) is 7.0 ± 3.8 ×10^–4 μM s^–1. The kcat came out at 0.70 s^–1 in data set [1] (setting [8]), 0.20 s⁻¹ in data set [1] (setting [10]), 0.69 s⁻¹ in data set [1] (setting [11]) and 0.19 s⁻¹ in data set [1] (setting [12]). Further, the specificity constant (kcat/KM) in data set [1] (setting [9]) is 14000 M⁻¹ s⁻¹; in data set [1] (correction: IFE only) it was 12900 M⁻¹ s⁻¹; in data set [1] (correction: none) it was 13200 M⁻¹ s⁻¹.

Turning to CF-PAGLAC(Cy5)-NH2 [4aa-Cy5], in data set [2], the “concentration of hydrolyzed peptide above which fluorescence plateaus or decreases (cleaved products form aggregates)” value turned out to be 2500 nM. Moreover, the Michaelis constant (Km) in data set [1] (setting [6]) worked out at 2.4 ± 1.9 µM; in data set [1] (setting [9]) it was 1.6 ± 1.3 µM; in data set [1] (correction: none), 1.6 ± 1.3 µM. For the same molecule, the vmax in data set [1] (setting [7]) was 3.7 ± 1.6 ×10^–4 μM s^–1. Also, the kcat in data set [1] (setting [8]) is 0.37 s^–1; in data set [1] (setting [10]), 0.28 s⁻¹; in data set [1] (setting [11]), 0.35 s⁻¹; in data set [1] (setting [12]) it was 0.26 s⁻¹. Besides, the specificity constant (kcat/KM) in data set [1] (setting [9]) was 175000 M⁻¹ s⁻¹; in data set [1] (correction: IFE only), 145800 M⁻¹ s⁻¹; in data set [1] (correction: none) it was 162500 M⁻¹ s⁻¹.

Consider CF-PSVAGLAGGC(AF647)-NH2 [8aa-AF647], for which the “increase of kcat with peptide length” value in data set [1] came out at 8 fold. Besides, the Km in data set [1] (setting [6]) was 77.6 ± 38.5 µM; in data set [1] (setting [9]), 17 ± 4.6 µM; in data set [1] (correction: none) it was 17 ± 4.6 µM. Besides, the vmax in data set [1] (setting [7]) is 57.0 ± 27.0 ×10^–4 μM s^–1. Further, the kcat in data set [1] (setting [8]) was determined as 5.70 s^–1; in data set [1] (setting [10]), 1.29 s⁻¹; in data set [1] (setting [11]), 5.47 s⁻¹; in data set [1] (setting [12]) it was 1.24 s⁻¹. Also, the results for the kcat/KM in data set [1] (setting [9]), in data set [1] (correction: IFE only) and in data set [1] (correction: none) were 75900 M⁻¹ s⁻¹, 70500 M⁻¹ s⁻¹ and 72900 M⁻¹ s⁻¹, respectively.

For CF-PSVAGLAGGC(Cy5)-NH2 [8aa-Cy5], the “increase of kcat with peptide length” value in data set [1] was 21 fold. Further, the results for the Km in data set [1] (setting [6]), in data set [1] (setting [9]) and in data set [1] (correction: none) were 17.6 ± 11.1 µM, 8.2 ± 3.9 µM and 8.2 ± 3.9 µM, respectively. Also, in data set [1] (setting [7]), the vmax is 78.2 ± 48.2 ×10^–4 μM s^–1. Moreover, the kcat in data set [1] (setting [8]) worked out at 7.82 s^–1; in data set [1] (setting [10]) it was 3.73 s⁻¹; in data set [1] (setting [11]), 7.50 s⁻¹; in data set [1] (setting [12]), 3.58 s⁻¹. The kcat/KM was 454900 M⁻¹ s⁻¹ in data set [1] (setting [9]), 426100 M⁻¹ s⁻¹ in data set [1] (correction: IFE only) and 436600 M⁻¹ s⁻¹ in data set [1] (correction: none).

As for CF-PVAGLAGC(Cy5)-NH2 [6aa-Cy5], the “concentration of hydrolyzed peptide above which fluorescence plateaus or decreases (cleaved products form aggregates)” value in data set [2] is 2500 nM. Further, the figures for the Km in data set [1] (setting [6]), in data set [1] (setting [9]) and in data set [1] (correction: none) were 11.6 ± 13 µM, 6.9 ± 6.6 µM and 6.9 ± 6.6 µM, respectively. The vmax in data set [1] (setting [7]) is given as 29.6 ± 26.6 ×10^–4 μM s^–1. The kcat came to 2.96 s^–1 in data set [1] (setting [8]), 1.87 s⁻¹ in data set [1] (setting [10]), 2.87 s⁻¹ in data set [1] (setting [11]) and 1.81 s⁻¹ in data set [1] (setting [12]). Further, the kcat/KM in data set [1] (setting [9]) was 271000 M⁻¹ s⁻¹; in data set [1] (correction: IFE only), 247400 M⁻¹ s⁻¹; in data set [1] (correction: none), 262300 M⁻¹ s⁻¹.

Turning to “H-LAGGC(AF647)-NH2 [AF647-carrying product]”, in data set [3], the “relative activity of TLP-ste in the presence of product” value is given as “relative activity decreases”.

Turning to “TLP-ste (C288L/N181C) (Geobacillus stearothermophilus; C520L/N413C)”, in data set [4], the Km was found to be 7000 µM and the kcat stood at 14 s^–1.

B1: 6aa-Cy5, CF-PVAGLAGC(Cy5)-NH2 (peptide)
peptide: {CF}-PVAGLAGC(Cy5)-NH2
As to B1, the KM of hydrolysis by 1 nM TLP-ste (Michaelis-Menten fit, donor fluorescence, corrected for IFE and FRET efficiency; 30 °C, MOPS pH 7.4, 10% DMSO) in data set [5] was 11.6 μM.

B2: 8aa-Cy5, CF-…(Cy5)-NH2 (peptide)
peptide: {CF}-PSVAGLAGGC(Cy5)-NH2
For B2, the KM of hydrolysis by 1 nM TLP-ste (Michaelis-Menten fit, donor fluorescence, corrected for IFE and FRET efficiency; 30 °C, MOPS pH 7.4, 10% DMSO) in data set [5] stood at 17.6 μM.

B3: 8aa-AF647, CF-…(AF647)-NH2 (peptide)
peptide: {CF}-PSVAGLAGGC(AF647)-NH2
Take B3: in data set [5], the KM of hydrolysis by 1 nM TLP-ste (Michaelis-Menten fit, donor fluorescence, corrected for IFE and FRET efficiency; 30 °C, MOPS pH 7.4, 10% DMSO) came to 77.6 μM.

B4: 4aa-AF647, CF-PAGLAC(AF647)-NH2 (peptide)
peptide: {CF}-PAGLAC(AF647)-NH2
Turning to B4, the KM of hydrolysis by 1 nM TLP-ste (Michaelis-Menten fit, donor fluorescence, corrected for IFE and FRET efficiency; 30 °C, MOPS pH 7.4, 10% DMSO) in data set [5] was 53.3 μM.

B5: 4aa-Cy5, CF-PAGLAC(Cy5)-NH2 (peptide)
peptide: {CF}-PAGLAC(Cy5)-NH2
In the case of B5, the KM of hydrolysis by 1 nM TLP-ste (Michaelis-Menten fit, donor fluorescence, corrected for IFE and FRET efficiency; 30 °C, MOPS pH 7.4, 10% DMSO) in data set [5] was 2.4 μM.
